Structures can show the parent of a compound that is named as a salt. Where two headings read alike, the source gives them in different places.
How the values were obtained:
[1] = target: T1, SARS-CoV-2 PLpro (nsp3 1564–1878) (Severe acute respiratory syndrome coronavirus 2, UniProt P0DTD1); experiment: biochemical; design: FRET-quenched peptide (Pro3) cleavage by PLpro, 10 min pre-incubation, slope over 20 min, normalised to no-compound control; conditions: low concentration screen, read-out: % of control remaining
[2] = target: T1, SARS-CoV-2 PLpro (nsp3 1564–1878); experiment: biochemical; design: FRET-quenched peptide (Pro3) cleavage by PLpro, 10 min pre-incubation, slope over 20 min, normalised to no-compound control; conditions: high concentration screen, read-out: % of control remaining

**Q.** Which remaining activity at 1.25 µM ([1]; Well no.=1569) does the source give for `COc1ccccc1OCCNCC(O)COc1cccc2[nH]c3ccccc3c12` (centres unmarked) [Carvedilol] here?
**A.** 99.6%

**Q.** What about the remaining activity at 1.25 µM ([1]; Well no.=4051) of the same compound?
**A.** 103%

**Q.** What about the remaining activity at 1.25 µM ([1]; Well no.=6702) of the same compound?
**A.** 97.7%

**Q.** What about the remaining activity at 3.75 µM ([2]; Well no.=1569) of the same compound?
**A.** 103%

**Q.** And the remaining activity at 3.75 µM ([2]; Well no.=4051)?
**A.** 104%

**Q.** What about the remaining activity at 3.75 µM ([2]; Well no.=6702) of the same compound?
**A.** 97.8%

**Q.** What does the source list for `NC(=O)c1ccc(-c2nc(-c3ccc4c(c3)OCCO4)c(-c3ccccn3)[nH]2)cc1` [Casein Kinase I Inhibitor, D4476]?
**A.** remaining activity at 1.25 µM ([1]; Well no.=2372): 102%; remaining activity at 3.75 µM ([2]; Well no.=2372): 99.2%

**Q.** Which results are given for `O=C(O)C=Cc1cc(Br)c(Br)c(Br)c1Br` [Casein Kinase II Inhibitor III, TBCA]?
**A.** remaining activity at 1.25 µM ([1]; Well no.=2374): 102%; remaining activity at 3.75 µM ([2]; Well no.=2374): 104%

**Q.** `COc1cc(Nc2ncc3ccn(-c4cccc(CCC#N)c4)c3n2)cc(OC)c1OC` [Casein Kinase II Inhibitor IV] was tested. Which remaining activity at 1.25 µM ([1]; Well no.=2381) did it give?
**A.** 104%

**Q.** And the remaining activity at 3.75 µM ([2]; Well no.=2381)?
**A.** 105%

**Q.** How did the remaining activity at 1.25 µM ([1]; Well no.=5317) turn out when `CC[C@H](C)C[C@H](C)CCCCCCCCC(=O)N[C@H]1C[C@@H](O)[C@@H](NCCN)NC(=O)[C@@H]2[C@@H](O)CCN2C(=O)[C@H]([C@H](O)CCN)NC(=O)[C@H]([C@H](O)[C@@H](O)c2ccc(O)cc2)NC(=O)[C@@H]2C[C@@H](O)CN2C(=O)[C@H]([C@@H](C)O)NC1=O` [Caspofungin Acetate] was run?
**A.** 99.9%

**Q.** What about the remaining activity at 3.75 µM ([2]; Well no.=5317) of the same compound?
**A.** 95.7%

**Q.** For `O[C@H]1[C@H](O)[C@@H](O)CN2CC[C@H](O)[C@H]12` [Castanospermine], which remaining activity at 1.25 µM ([1]; Well no.=3135) is on record?
**A.** 102%

**Q.** And the remaining activity at 3.75 µM ([2]; Well no.=3135)?
**A.** 102%

**Q.** Which remaining activity at 1.25 µM ([1]; Well no.=3274) does the source give for `OC[C@H]1O[C@@H](O[C@@H]2OC=C[C@H]3[C@H](O)[C@@H]4O[C@]4(CO)[C@@H]23)[C@H](O)[C@@H](O)[C@@H]1O` [Catalpol] here?
**A.** 102%

**Q.** And the remaining activity at 3.75 µM ([2]; Well no.=3274)?
**A.** 103%

**Q.** With `CCC1=C[C@@H]2CN3CCc4c([nH]c5ccccc45)[C@@](C(=O)OC)(C2)[C@@H]13` [Catharanthine] as the compound, how does the remaining activity at 1.25 µM ([1]; Well no.=3595) read?
**A.** 104%

**Q.** What about the remaining activity at 3.75 µM ([2]; Well no.=3595) of the same compound?
**A.** 107%

**Q.** With `CCN1/C(=C/C(C)=O)Sc2ccc(OC)cc21` [Cdc2-Like Kinase Inhibitor, TG003] as the compound, how does the remaining activity at 1.25 µM ([1]; Well no.=2410) read?
**A.** 106%

**Q.** What about the remaining activity at 3.75 µM ([2]; Well no.=2410) of the same compound?
**A.** 109%

**Q.** With `O=C1N=C(NCc2cccs2)S/C1=C\c1ccc2ncccc2c1` [Cdk1 Inhibitor IV, RO-3306] as the compound, how does the remaining activity at 1.25 µM ([1]; Well no.=2347) read?
**A.** 103%

**Q.** What about the remaining activity at 3.75 µM ([2]; Well no.=2347) of the same compound?
**A.** 104%

**Q.** For `CCn1cnc2c(Nc3cccc(Cl)c3)nc(N[C@@H]3CCCC[C@@H]3N)nc21` [Cdk1 Inhibitor, CGP74514A], which remaining activity at 1.25 µM ([1]; Well no.=2366) is on record?
**A.** 96.7%

**Q.** And the remaining activity at 3.75 µM ([2]; Well no.=2366)?
**A.** 96.1%

**Q.** For `O=C1Nc2ccccc2/C1=C\c1c(Cl)[nH]c2ccccc12` [Cdk1 Inhibitor], which remaining activity at 1.25 µM ([1]; Well no.=2364) is on record?
**A.** 101%

**Q.** And the remaining activity at 3.75 µM ([2]; Well no.=2364)?
**A.** 104%

**Q.** Which remaining activity at 1.25 µM ([1]; Well no.=2368) does the source give for `Nc1nc(Nc2ccc(S(N)(=O)=O)cc2)nn1C(=S)Nc1c(F)cccc1F` [Cdk1/2 Inhibitor III] here?
**A.** 99.3%

**Q.** And the remaining activity at 3.75 µM ([2]; Well no.=2368)?
**A.** 102%

**Q.** `Nc1[nH]nc2nc3ccccc3nc12` [Cdk1/5 Inhibitor] was tested. Which remaining activity at 1.25 µM ([1]; Well no.=2370) did it give?
**A.** 96.8%

**Q.** What about the remaining activity at 3.75 µM ([2]; Well no.=2370) of the same compound?
**A.** 98.7%

**Q.** Which remaining activity at 1.25 µM ([1]; Well no.=2416) does the source give for `COc1ccc(CNc2nc(N(CCO)CCO)nc3c2ncn3C(C)C)cc1` [Cdk2 Inhibitor III] here?
**A.** 107%

**Q.** What about the remaining activity at 3.75 µM ([2]; Well no.=2416) of the same compound?
**A.** 110%

**Q.** `NS(=O)(=O)c1ccc(N=Nc2c(O)[nH]c3ccc(Br)cc23)cc1` [Cdk2 Inhibitor II] was tested. Which remaining activity at 1.25 µM ([1]; Well no.=2383) did it give?
**A.** 102%

**Q.** And the remaining activity at 3.75 µM ([2]; Well no.=2383)?
**A.** 103%

**Q.** What does the source list for `CCN(CC)C(=O)c1ccc(Nc2nc(OCC3CCCCC3)c3[nH]cnc3n2)cc1` [Cdk2 Inhibitor IV, NU6140]?
**A.** remaining activity at 1.25 µM ([1]; Well no.=2418): 100%; remaining activity at 3.75 µM ([2]; Well no.=2418): 94.5%

**Q.** With `COc1ccc(OC)c2c(=S)c3ccccc3[nH]c12` [Cdk4 Inhibitor II, NSC 625987] as the compound, how does the remaining activity at 1.25 µM ([1]; Well no.=2406) read?
**A.** 102%

**Q.** And the remaining activity at 3.75 µM ([2]; Well no.=2406)?
**A.** 108%

**Q.** What does the source list for `O=C1NC(=O)c2c1c1c3ccccc3[nH]c1c1[nH]c3cc(Br)ccc3c21` [Cdk4 Inhibitor]?
**A.** remaining activity at 1.25 µM ([1]; Well no.=2404): 99.9%; remaining activity at 3.75 µM ([2]; Well no.=2404): 99.9%

**Q.** Which remaining activity at 1.25 µM ([1]; Well no.=2395) does the source give for `Nc1n[nH]c(N)c1N=Nc1ccc(O)cc1` [Cdk9 Inhibitor II] here?
**A.** 104%

**Q.** What about the remaining activity at 3.75 µM ([2]; Well no.=2395) of the same compound?
**A.** 103%

**Q.** Which remaining activity at 1.25 µM ([1]; Well no.=2387) does the source give for `CC(C)n1cnc2c(NCc3ccccc3O)nc(NCCCO)nc21` [Cdk Inhibitor, p35] here?
**A.** 94.5%

**Q.** What about the remaining activity at 3.75 µM ([2]; Well no.=2387) of the same compound?
**A.** 97%

**Q.** What does the source list for `CC(C)c1nn(-c2c(Cl)cccc2Cl)c2nc(Cc3ccc(OCCO)cc3)[nH]c(=O)c12` [Cdk/Crk Inhibitor]?
**A.** remaining activity at 1.25 µM ([1]; Well no.=2420): 105%; remaining activity at 3.75 µM ([2]; Well no.=2420): 105%

**Q.** With `COc1cc2c(Oc3ccc4[nH]c(C)cc4c3F)ncnc2cc1OCCCN1CCCC1` [Cediranib (AZD2171)] as the compound, how does the remaining activity at 1.25 µM ([1]; Well no.=4999) read?
**A.** 101%

**Q.** What about the remaining activity at 3.75 µM ([2]; Well no.=4999) of the same compound?
**A.** 103%

**Q.** How did the remaining activity at 1.25 µM ([1]; Well no.=88) turn out when `N[C@@H](C(=O)N[C@@H]1C(=O)N2C(C(=O)O)=C(Cl)CS[C@H]12)c1ccccc1` [Cefaclor] was run?
**A.** 99.7%

**Q.** What about the remaining activity at 3.75 µM ([2]; Well no.=88) of the same compound?
**A.** 101%

**Q.** Which remaining activity at 1.25 µM ([1]; Well no.=178) does the source give for `Cc1nnc(SCC2=C(C(=O)O)N3C(=O)[C@@H](NC(=O)Cn4cnnn4)[C@H]3SC2)s1` [Cefazolin sodium] here?
**A.** 101%

**Q.** What about the remaining activity at 3.75 µM ([2]; Well no.=178) of the same compound?
**A.** 99.4%

**Q.** With `CO/N=C(\C(=O)N[C@@H]1C(=O)N2C(C(=O)[O-])=C(C[N+]3(C)CCCC3)CS[C@H]12)c1csc(N)n1` [Cefepime] as the compound, how does the remaining activity at 1.25 µM ([1]; Well no.=1842) read?
**A.** 90%

**Q.** And the remaining activity at 3.75 µM ([2]; Well no.=1842)?
**A.** 88.2%

**Q.** How did the remaining activity at 1.25 µM ([1]; Well no.=134) turn out when `CO[C@@]1(NC(=O)CSCC#N)C(=O)N2C(C(=O)O)=C(CSc3nnnn3C)CS[C@@H]21` [Cefmetazole sodium] was run?
**A.** 101%

**Q.** And the remaining activity at 3.75 µM ([2]; Well no.=134)?
**A.** 99.6%

**Q.** Which results are given for `CO/N=C(\C(=O)N[C@@H]1C(=O)N2C(C(=O)O)=C(Cn3ccc(=N)n3CCO)CS[C@H]12)c1csc(N)n1` [Cefoselis sulfate]?
**A.** remaining activity at 1.25 µM ([1]; Well no.=5199): 96.6%; remaining activity at 3.75 µM ([2]; Well no.=5199): 100%

**Q.** Which remaining activity at 1.25 µM ([1]; Well no.=186) does the source give for `CO/N=C(\C(=O)N[C@@H]1C(=O)N2C(C(=O)O)=C(COC(C)=O)CS[C@H]12)c1csc(N)n1` [Cefotaxime sodium] here?
**A.** 93.2%

**Q.** What about the remaining activity at 3.75 µM ([2]; Well no.=186) of the same compound?
**A.** 94.1%

**Q.** `NC(=O)c1cc[n+](CC2=C(C(=O)O)N3C(=O)[C@@H](NC(=O)[C@@H](c4ccccc4)S(=O)(=O)[O-])[C@H]3SC2)cc1` [Cefsulodin sodium salt hydrate] was tested. Which remaining activity at 1.25 µM ([1]; Well no.=92) did it give?
**A.** 98.3%

**Q.** And the remaining activity at 3.75 µM ([2]; Well no.=92)?
**A.** 99.3%

**Q.** With `CC(C)(O/N=C(\C(=O)N[C@@H]1C(=O)N2C(C(=O)[O-])=C(C[n+]3ccccc3)CS[C@H]12)c1csc(N)n1)C(=O)O` [Ceftazidime] as the compound, how does the remaining activity at 1.25 µM ([1]; Well no.=2221) read?
**A.** 98.3%

**Q.** What about the remaining activity at 3.75 µM ([2]; Well no.=2221) of the same compound?
**A.** 98%

**Q.** How did the remaining activity at 1.25 µM ([1]; Well no.=5288) turn out when `CO/N=C(\C(=O)N[C@@H]1C(=O)N2C(C(=O)O)=C(CSC(=O)c3ccco3)CS[C@H]12)c1csc(N)n1` [Ceftiofur HCl] was run?
**A.** 90.5%

**Q.** And the remaining activity at 3.75 µM ([2]; Well no.=5288)?
**A.** 91.7%

Reference: PMC8286840, “Identifying SARS-CoV-2 antiviral compounds by screening for small molecule inhibitors of Nsp3 papain-like protease” (Biochemical Journal, 2021)
